We go through three compounds from patent US7662994B2, “Method for the preparation of crystalline dexloxiglumide and products obtained” (Rottapharm S.p.A., priority 2003, dated 2010).

Each structure is given as a SMILES string.

Data set [1] in a line: Particle size distribution by laser light scattering (Malvern Master Sizer 2000, wet method). Format: physicochemical. The following applies: for span index: (D90-D10)/D50 type width of distribution; for D50 (mean size measurement) / percentage of particles <10 μm (fine particles): wet method, H2O with 0.5% Tween 20, sonication 60 sec. As for the experimental part: The PSD is determined by the “laser light scattering” technique, that is, the scattering (diffraction) which a high-energy, monochromatic light beam (a laser beam) undergoes when it encounters a particle of a particular size on its optical path. The powder to be examined may be prepared by various techniques, both dry and wet; in the latter case, the selection of the dispersant should take account of the chemical/physical properties of the raw material to be analyzed. Once the sample has been analyzed, the results can be given as histograms in which each individual column represents a band of a certain width (in microns), whereas the height represents the percentage of sample present in that band. The principal statistical distribution values calculated by the software of this apparatus are, amongst other things, the D50, that is, the size in microns for which 50% of the sample is smaller and 50% is larger. Another important measurement is the “span”, which is the measurement of the width of the distribution. This width is calculated by the following ratio: [formula] where D90 and D10 have meanings analogous to that of D50. The smaller this “span” index is, the more reliable the particle distribution of the sample examined will be. The apparatus used for the determination of the PSD was a Malvern Master Sizer 2000 and the method used was the wet method with the use of H2O as the dispersant with a concentration of 0.5% of Tween 20 as surfactant. The measurements were taken at a concentration of dexloxiglumide of about 0.06-0.08% after ultrasound sonication for 60 sec which enabled the accumulations to be broken up without breaking the crystals. Note: The particle sizes given both in the text and in the claims are not absolute quantities but are relative to the measurement method used (in this case the Malvern Master Sizer 2000 instrument with the method described in Example 1).

The nature of data set [2]: Morphological analysis of the crystals by microscopy (300x). The data set is classed as physicochemical. The following applies: photographs, 300x magnification. As for the experimental part:
Morphological analysis performed by microscopic analysis of the crystals obtained by crystallization from ethanol/H2O and isopropyl ether, respectively, also confirms what had already been seen with by particle-size analysis by laser-beam diffraction.
It can be seen from a comparison of the two images of FIG. 2 that the product crystallized from isopropyl ether has crystals with well-defined, lamellar shapes with an average diameter of about 70-100 μm, whereas the other lot has crystals of irregular shape with very many smaller aggregated crystals.

Data set [3] can be described thus: Compressibility of the powder (Carr index, USP 24/NF19). The data set is classed as physicochemical. The following applies: 100 g powder, 250 ml graduated cylinder, 2000 strokes; percentage values 5-15 excellent, >33 very poor. As for the experimental part: a) measurement of the compressibility of the powder which is expressed by the following formula (Carr index; (according to USP 24/NF19, p. 1914): [formula] where Vo and Vf are respectively the volumes occupied by a predetermined weighed quantity of powder (generally 100 g) placed in a 250 ml graduated cylinder and measured before and after a certain number of mechanical strokes (generally 2000 strokes); the smaller this index is the better will be the behaviour of the powder upon compression; for example, percentage values between 5-15 are considered excellent, whereas values greater than 33 are considered very poor (see J. I. Wells—Pharmaceutical Preformulation; Ellis H. Lim; J. Wiley and Sons Ed. p.

Data set [4] has as its target T1, type-1 cholecystokinin (CCK1) receptor (Homo sapiens, UniProt P32238).
T1 sequence (P32238 1-428): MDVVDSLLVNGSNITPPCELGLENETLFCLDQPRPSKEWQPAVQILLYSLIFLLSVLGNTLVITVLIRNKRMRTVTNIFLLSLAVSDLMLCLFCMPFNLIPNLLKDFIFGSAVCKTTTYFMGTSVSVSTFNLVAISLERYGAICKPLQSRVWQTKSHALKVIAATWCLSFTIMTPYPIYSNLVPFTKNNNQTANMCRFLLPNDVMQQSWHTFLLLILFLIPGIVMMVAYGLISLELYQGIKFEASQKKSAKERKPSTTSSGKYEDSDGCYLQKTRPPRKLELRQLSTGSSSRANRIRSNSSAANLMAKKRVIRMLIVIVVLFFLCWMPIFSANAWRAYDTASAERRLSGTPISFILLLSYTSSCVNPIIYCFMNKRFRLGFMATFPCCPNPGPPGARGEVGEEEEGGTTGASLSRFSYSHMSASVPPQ
As to conditions: cited from earlier work.

For the compound `CCCCCN(CCCOC)C(=O)[C@@H](CCC(=O)O)NC(=O)c1ccc(Cl)c(Cl)c1` [lot PP9282/43851, (R)-4-[(3,4-dichlorobenzoyl)amino]-5-[(3-methoxypropyl)-pentylamino]-5-oxo-pentanoic acid], in data set [1], the “shape of particle distribution” value is listed as “practically unimodal”, the span index is 1.608, the “D50 (mean size measurement)” value was determined as 97.3 μm and the “percentage of particles <10 μm (fine particles)” value is listed as 4.23%. Also, the “average diameter of crystals” value in data set [2] was 70-100 μm. Also, the Carr index result in data set [3] is “about 12”.
Consider `CCCCCN(CCCOC)C(=O)[C@@H](CCC(=O)O)NC(=O)c1ccc(Cl)c(Cl)c1` [dexloxiglumide obtained by crystallization from H2O/ethanol ] [(R)-4-[(3,4-dichlorobenzoyl)amino]-5-[(3-methoxypropyl)-pentylamino]-5-oxo-pentanoic acid, reference compound], for which, in data set [1], the “shape of particle distribution” value is given as “bimodal”, the span index was 4.668, the “D50 (mean size measurement)” value is recorded as 23.6 μm and the “percentage of particles <10 μm (fine particles)” value is listed as 29.5%. In addition, the Carr index in data set [3] was more than 33.
With `CCCCCN(CCCOC)C(=O)[C@@H](CCC(=O)O)NC(=O)c1ccc(Cl)c(Cl)c1` [Dexloxiglumide, (R)-4-[(3,4-dichlorobenzoyl)amino]-5-[(3-methoxypropyl)-pentylamino]-5-oxo-pentanoic acid], the “antagonistic activity towards CCK1 receptor” value in data set [4] is “potent antagonistic activity”.
